Measurements reported in patent US8361964B2, “Growth hormone releasing factor (GRF) analogs and uses thereof” (Theratechnologies Inc., priority 2011, dated 2013).
Where a SMILES comes first, the peptide text is derived from it.

How the values were obtained:
Growth Hormone secretion [1] = assay: Growth Hormone secretion in female mice after subcutaneous GRF analog; format: in vivo; conditions: female CD-1 mice; 10 μg/mouse subcutaneous; plasma 10 minutes after injection
Description: (§1) CD-1 mice (female, weighting from 20 to 25 g) were obtained from Charles River Inc. Animals were used according to a protocol of the Animal Care Committee along with the principles of the Guide for the Care and Use of Experimental Animals of the Canadian Council on Animal Care. The animals were maintained on standard laboratory chow under a 12:12 light:dark cycle. They were kept in groups of 4 mice per cage.
At the day of the experiment, mice received a subcutaneous injection of GRF analog (10 μg/mouse dissolved in 20 mM sodium acetate (AcONa)+5% mannitol at pH 5). 10 minutes after injection, the mice were anesthezied with isolufrane. Blood samples (500 μl) were obtained by intra-cardiac puncture. Blood was placed into microtainer pre-treated with K3EDTA and immediately centrifuged at 13,000 RPM in a desktop centrifuge for 2 minutes. The plasma was collected and placed into a screwcap Eppendorf™ tube and quick frozen in liquid nitrogen. The samples were then kept at −80° C. until assayed. Determination of GH levels was performed as described below.
(§2) Rat and mouse plasma samples were vortexed carefully and centrifuged at 9,000 RPM for 2 min at 4° C. The dosage of GH levels was performed using the Rat/Mouse Growth Hormone ELISA kit from Millipore (Cat. # EZRMGH-45K). Sample supernatants were first diluted 20-fold with the GH ELISA assay buffer, and 10 μl of this dilution was added to the ELISA plate with 90 μl of GH EIA assay buffer. The remaining of the procedure was performed according to the manufacturer's instructions, and the data obtained were analyzed using GraphPad Prism™ software.
(§3) The GRF analogs described herein were tested for their ability to induce GH release in female mice and rats. […] The data are presented in Tables III (mice) and IV-V (rats).

Growth Hormone secretion [2] = assay: Growth Hormone secretion in female rats after subcutaneous GRF analog; format: in vivo; conditions: female Sprague-Dawley rats; 10 μg/rat subcutaneous; plasma 0-60 minutes
Description: as §1, with “Sprague-Dawley rats” for “CD-1 mice”, “250” for “20”, “300” for “25”, “rats” for “mice”
The animals were anesthetized with isoflurane 2.5%. A mid-section opening was made in the neck to expose the carotid artery. The carotid artery was canulated with polypropylene tubing (PE-50) to allow blood withdrawal. After surgical preparation, rats received a subcutaneous injection of GRF analog (10 μg/rat dissolved in 20 mM AcONa+5% mannitol at pH 5). For pharmacodynamics studies, blood samples (400 μL) were collected from 4 to 8 animals per group per time point. Blood samples (400 μl) were collected via the carotid catheter at 0, 10, 20, 30, 45 and 60 minutes after drug injection. Blood was placed into microtainer pre-treated with K3EDTA and immediately centrifuged at 13,000 RPM in a desktop centrifuge for 2 minutes. The plasma was collected and placed into a screw cap Eppendorf™ and quick frozen in liquid nitrogen. The samples were then kept at −80° C. until assayed. Determination of GH levels was performed as described below.
as §2, §3

| SMILES | GH levels 10 min (Growth Hormone secretion [1]) | Mean AUC (GH Area Under the curve, GH concentration over time) (Growth Hormone secretion [2]) | Mean Cmax (ng/ml) of Growth Hormone secretion (Growth Hormone secretion [2]) |
| --- | --- | --- | --- |
| CC/C=C/CC(=O)N[C@@H](Cc1ccc(O)cc1)C(=O)N[C@@H](C)C(=O)N[C@@H](CC(=O)O)C(=O)N[C@@H](C)C(=O)N[C@H](C(=O)N[C@@H](Cc1ccccc1)C(=O)N[C@H](C(=O)N[C@@H](CC(=O)O)C(=O)N[C@@H](CO)C(=O)N[C@@H](Cc1ccc(O)cc1)C(=O)N[C@@H](CCCNC(=N)N)C(=O)N[C@@H](CCCCN)C(=O)N[C@H](C(=O)N[C@@H](CC(C)C)C(=O)N[C@@H](C)C(=O)N[C@@H](CCC(N)=O)C(=O)N[C@@H](CC(C)C)C(=O)N[C@@H](CO)C(=O)N[C@@H](C)C(=O)N[C@@H](CCCNC(=N)N)C(=O)N[C@@H](CCC(N)=O)C(=O)N[C@@H](CC(=O)O)C(=O)N[C@H](C(=O)N[C@@H](CC(C)C)C(=O)N[C@@H](CO)C(=O)N[C@H](CCCNC(=N)N)C(N)=O)[C@@H](C)CC)C(C)C)[C@@H](C)O)[C@@H](C)CC [SEQ ID NO: 46, Trans-3-hexenoyl-YADAIFTDSYRKVLAQLSARQDILS-r-NH2] (HELM PEPTIDE1{[CC/C=C/CC(=O)[*:2]].Y.A.D.A.I.F.T.D.S.Y.R.K.V.L.A.Q.L.S.A.R.Q.D.I.L.S.[dR].[am]}$$$$V2.0) | 10.6 ng/mL | 1453 | 57.3 ng/mL |
| CC[C@H](C)[C@H](NC(=O)[C@H](C)NC(=O)[C@H](CC(=O)O)NC(=O)[C@@H](C)NC(=O)[C@@H](N)Cc1ccc(O)cc1)C(=O)N[C@@H](Cc1ccccc1)C(=O)N[C@H](C(=O)N[C@@H](CC(=O)O)C(=O)N[C@@H](CO)C(=O)N[C@@H](Cc1ccc(O)cc1)C(=O)N[C@@H](CCCNC(=N)N)C(=O)N[C@@H](CCCCN)C(=O)N[C@H](C(=O)N[C@@H](CC(C)C)C(=O)N[C@@H](C)C(=O)N[C@@H](CCC(N)=O)C(=O)N[C@@H](CC(C)C)C(=O)N[C@@H](CCCCN)C(=O)N[C@@H](C)C(=O)N[C@@H](CCCNC(=N)N)C(=O)N[C@@H](CCC(N)=O)C(=O)N[C@@H](CC(=O)O)C(=O)N[C@H](C(=O)N[C@@H](CC(C)C)C(=O)N[C@@H](CO)C(=O)N[C@H](CCCNC(=N)N)C(N)=O)[C@@H](C)CC)C(C)C)[C@@H](C)O [SEQ ID NO: 21, Y-a-DAIFTDSYRKVLAQLKARQDILS-r-NH2] (HELM PEPTIDE1{Y.[dA].D.A.I.F.T.D.S.Y.R.K.V.L.A.Q.L.K.A.R.Q.D.I.L.S.[dR].[am]}$$$$V2.0) | 104.4 ng/mL | 3130 | 135.9 ng/mL |
| CC/C=C/CC(=O)N[C@@H](Cc1ccc(O)cc1)C(=O)N[C@@H](C)C(=O)N[C@@H](CC(=O)O)C(=O)N[C@@H](C)C(=O)N[C@H](C(=O)N[C@@H](Cc1ccccc1)C(=O)N[C@H](C(=O)N[C@@H](CC(=O)O)C(=O)N[C@@H](CO)C(=O)N[C@@H](Cc1ccc(O)cc1)C(=O)N[C@@H](CCCNC(=N)N)C(=O)N[C@@H](CCCCN)C(=O)N[C@H](C(=O)N[C@@H](CC(C)C)C(=O)N[C@@H](C)C(=O)N[C@@H](CCC(N)=O)C(=O)N[C@@H](CC(C)C)C(=O)N[C@@H](CCCCN)C(=O)N[C@@H](C)C(=O)N[C@@H](CCCNC(=N)N)C(=O)N[C@@H](CCC(N)=O)C(=O)N[C@@H](CC(=O)O)C(=O)N[C@H](C(=O)N[C@@H](CC(C)C)C(=O)N[C@@H](C)C(=O)N[C@@H](CCCNC(=N)N)C(N)=O)[C@@H](C)CC)C(C)C)[C@@H](C)O)[C@@H](C)CC [SEQ ID NO: 20, Trans-3-hexenoyl-YADAIFTDSYRKVLAQLKARQDILAR-NH2] (HELM PEPTIDE1{[CC/C=C/CC(=O)[*:2]].Y.A.D.A.I.F.T.D.S.Y.R.K.V.L.A.Q.L.K.A.R.Q.D.I.L.A.R.[am]}$$$$V2.0) | 307.7 ng/mL | 966 | 31.7 ng/mL |
| CC/C=C/CC(=O)N[C@@H](Cc1ccc(O)cc1)C(=O)N[C@@H](C)C(=O)N[C@@H](CC(=O)O)C(=O)N[C@@H](C)C(=O)N[C@H](C(=O)N[C@@H](Cc1ccccc1)C(=O)N[C@H](C(=O)N[C@@H](CC(=O)O)C(=O)N[C@@H](CO)C(=O)N[C@@H](Cc1ccc(O)cc1)C(=O)N[C@@H](CCCNC(=N)N)C(=O)N[C@@H](CCCCN)C(=O)N[C@H](C(=O)N[C@@H](CC(C)C)C(=O)N[C@@H](C)C(=O)N[C@@H](CCC(N)=O)C(=O)N[C@@H](CC(C)C)C(=O)N[C@@H](CO)C(=O)N[C@@H](C)C(=O)N[C@@H](CCCNC(=N)N)C(=O)N[C@@H](CCC(N)=O)C(=O)N[C@@H](CC(=O)O)C(=O)N[C@H](C(=O)N[C@@H](CC(C)C)C(=O)N[C@@H](C)C(=O)N[C@@H](CCCNC(=N)N)C(N)=O)[C@@H](C)CC)C(C)C)[C@@H](C)O)[C@@H](C)CC [SEQ ID NO: 45, Trans-3-hexenoyl-YADAIFTDSYRKVLAQLSARQDILAR-NH2] (HELM PEPTIDE1{[CC/C=C/CC(=O)[*:2]].Y.A.D.A.I.F.T.D.S.Y.R.K.V.L.A.Q.L.S.A.R.Q.D.I.L.A.R.[am]}$$$$V2.0) | 102.1 ng/mL | 1953 | 78.8 ng/mL |
| CC/C=C/CC(=O)N[C@@H](Cc1ccc(O)cc1)C(=O)N[C@@H](C)C(=O)N[C@@H](CC(=O)O)C(=O)N[C@@H](C)C(=O)N[C@H](C(=O)N[C@@H](Cc1ccccc1)C(=O)N[C@H](C(=O)N[C@@H](CC(=O)O)C(=O)N[C@@H](CO)C(=O)N[C@@H](Cc1ccc(O)cc1)C(=O)N[C@@H](CCCNC(=N)N)C(=O)N[C@@H](CCCCN)C(=O)N[C@H](C(=O)N[C@@H](CC(C)C)C(=O)N[C@@H](C)C(=O)N[C@@H](CCC(N)=O)C(=O)N[C@@H](CC(C)C)C(=O)N[C@@H](CCCCN)C(=O)N[C@@H](C)C(=O)N[C@@H](CCCNC(=N)N)C(=O)N[C@@H](CCC(N)=O)C(=O)N[C@@H](CC(=O)O)C(=O)N[C@H](C(=O)N[C@@H](CC(C)C)C(=O)N[C@@H](C)C(=O)N[C@@H](CCCNC(=N)N)C(=O)N[C@@H](C)C(=O)N[C@@H](C)C(=O)N[C@@H](CCCNC(=N)N)C(N)=O)[C@@H](C)CC)C(C)C)[C@@H](C)O)[C@@H](C)CC [SEQ ID NO: 26, Trans-3-hexenoyl-YADAIFTDSYRKVLAQLKARQDILARAAR-NH2] (HELM PEPTIDE1{[CC/C=C/CC(=O)[*:2]].Y.A.D.A.I.F.T.D.S.Y.R.K.V.L.A.Q.L.K.A.R.Q.D.I.L.A.R.A.A.R.[am]}$$$$V2.0) | 484.6 ng/mL | 8880 | 468.1 ng/mL |
